Experimental data from US20030187048A1, “Method for inhibiting skin lesion formation using histamine as the active ingredient” (priority 1991, published 2003).
Where “and” joins values, the source holds several entries; their conditions need not be identical. Equal values may be shown once. Read-outs that look alike come from different tables or passages of the source.

Tests used:
[1] = tested on: Varicella zoster (chickenpox) lesions; conditions: for Mean % Reduction In Healing Time per Lesion: compared to placebo gel; for Itching score / Local pain score: scale 0 to 5; for Mean Time to Lesion Healing: placebo patients 7 days
Protocol: Treatment consisted of topical application three times a day for a period of five days. […] The mean percent reduction in complete healing time per average pox lesion was evaluated grouping the two patients who received active gel concentrations together and comparing to the two patients receiving placebo gel.
Subjects were assigned randomly to one of three active ingredient levels being evaluated, 0.0%, 0.0067% and G.009% by weight of active ingredient.
Each patient was contacted daily for 5 days for his or her estimate of the symptomatic relief of any symptoms associated with Varicella zoster (chickenpox) as well as the patient's interpretation of total healing of the episode in addition to the patient's description of the lesions present. In an attempt to quantify responses, patients were asked to rate each symptom each day on a scale of 0 to 5 with 0 representing no evidence of the symptom and 5 representing to worst or most prominent evidence of the symptom ever for the patient. Subject compliance with the study regimen and the use of other medications was also assessed.
Lesions were monitored for the usual progression of the typical stages seen with Varicella zoster. Typical chickenpox begins as crops of small, red papules that almost immediately develop into clear, “tear drop” vesicles on an erythematous base which are usually not umbilicated. The lesions initially contain clear fluid, but within 24 hours the contents become cloudy. once this occurs, the vesicles are easily broken and become scabbed. Successive crops of lesions appear for 3 to 4 days.

thermal burn injuries = conditions: for Height in mm of Blister / Height in mm of Swelling of Soft Tissue Surrounding Burn Site / Subjective Evaluation of Tenderness on Palpations (rated 0 to 5) / Zone of Erythema Surrounding Burn Site (mm): per burn site
[2] = tested on: Giant Papillary Conjunctivitis
Protocol: The composition of the present invention includes initial preparation of a gel base by adding 0.8% CARBOPOL 940, which is a vinyl polymer, to distilled water. This mixture was allowed to stand for several hours until the polymer was wetted and a gel was formed. This mixture then was blended by means of a ordinary high speed mixer, such as a Lightning Labmaster II until a homogenous mixture is formed. At this point, a neutralizing and emulsifying agent such as an amino alcohol was added, forming an emulsion. […] This composition then was applied topically to various types of lesions, as subsequently described. […] Propylparaben or methylparaben may be used as a preservative. For “unidose” dispensers containing only two to three drops, no preservatives are used, as it is known that preservatives in ophthalmic solutions frequently cause undesirable side effects. The term semi-synthetic water soluble polymer as used herein includes hydroxy methylcellulose or carboxy methylcellulose. Carbopol is widely available in different viscosities.
Treatment consisted of topical ophthalmic application of both ophthalmic solution concentrations to their randomly assigned patients 2 times a day for 5 days. […] Each patient was clinically evaluated at 48 hours and 120 hours following the initiation of treatment for 2 parameters of tissue damage associated with Giant Papillary Conjunctivitis. In addition, each patient was asked to evaluate subjectively 2 symptoms associated with Giant Papillary conjunctivitis 48 hours and 120 hours after treatment initiation. The percent reduction from the initial presentation of each of the parameters of tissue damage and the initial presentation for each additional symptom evaluated was calculated from 48 and 120 hour post treatment initiation data.
Patients were randomly assigned to one of two active levels being evaluated.
Clinical evaluation was performed at 48 hours and 120 hours post treatment initiation. Each patient was asked to subjectively evaluate 2 additional symptoms associated with Giant Papillary Conjunctivitis by rating each symptom on a scale of 0 to 5 with 0 representing no evidence of symptom and 5 representing the greatest evidence of the symptom ever by the patient. Clinical evaluation of tissue damage parameters was also done using the same scale of 0 to 5. Patient compliance with the treatment regimen and the use of other medications was also evaluated.

[3] = tested on: active herpes labialis lesions; conditions: 0.0275% gel
Source text: An additional gel concentration (0.0275%) was' used on two patients for active herpes labialis lesions.

[4] = 0.0045% gel, from greatest value of that burn site
[5] = 0.009% gel, from greatest value of that burn site
[6] = 0.0067% ophth soln, 48 hr, per patient
[7] = 0.0067% ophth soln, 120 hr, per patient
[8] = 0.0067% ophth soln, scale 0 to 5, per patient

Compound: NCCc1c[nH]cn1 [IEP, 1H-imidazole-4-ethanamine,phosphate]
- Mean % Reduction In Healing Time per Lesion ([1]; 0.0067% IEP gel): 50.0%
- Itching score ([1]; 0.0067% IEP gel, day 1): 2
- Local pain score ([1]; 0.0067% IEP gel, day 1): 2
- Itching score ([1]; 0.0067% IEP gel, day 2): 0
- Local pain score ([1]; 0.0067% IEP gel, day 2): 1
- Itching score ([1]; 0.0067% IEP gel, day 3): 0
- Local pain score ([1]; 0.0067% IEP gel, day 3): 0
- Itching score ([1]; 0.0067% IEP gel, day 4): 0
- Local pain score ([1]; 0.0067% IEP gel, day 4): 0
- Itching score ([1]; 0.0067% IEP gel, day 5): 0
- Local pain score ([1]; 0.0067% IEP gel, day 5): 0
- Mean Time to Lesion Healing ([1]; 0.0067% gel): 3.5 days
- Mean % Reduction In Healing Time per Lesion ([1]; 0.009% IEP gel): 64.28%
- Itching score ([1]; 0.009% IEP gel, day 1): 2
- Local pain score ([1]; 0.009% IEP gel, day 1): 3
- Itching score ([1]; 0.009% IEP gel, day 2): 0
- Local pain score ([1]; 0.009% IEP gel, day 2): 1
- Itching score ([1]; 0.009% IEP gel, day 3): 0
- Local pain score ([1]; 0.009% IEP gel, day 3): 0
- Itching score ([1]; 0.009% IEP gel, day 4): 0
- Local pain score ([1]; 0.009% IEP gel, day 4): 0
- Itching score ([1]; 0.009% IEP gel, day 5): 0
- Local pain score ([1]; 0.009% IEP gel, day 5): 0
- Mean Time to Lesion Healing ([1]; 0.009% gel): 2.5 days
- Difference in mean percent reduction in complete healing time per lesion vs placebo ([1]; combined 0.0067% and 0.009% groups, p<0.05): significant
- Progression of lesion stages ([1]; lesions treated with 0.0067% and 0.009% gel): did not progress through the usual progression of lesions stages
- Untoward reactions ([1]; topical gel 0.0067%, 0.009%, three times a day for five days): no untoward reactions
- Height in mm of Blister (thermal burn injuries; 0.0045% gel, 3.5 hours): 3 mm and 2 mm
- Height in mm of Swelling of Soft Tissue Surrounding Burn Site (thermal burn injuries; 0.0045% gel, 3.5 hours): 1 mm
- Subjective Evaluation of Tenderness on Palpations (rated 0 to 5) (thermal burn injuries; 0.0045% gel, 3.5 hours): 3 and 5
- Zone of Erythema Surrounding Burn Site (mm) (thermal burn injuries; 0.0045% gel, 3.5 hours): 8 mm and 4 mm
- Height in mm of Blister (thermal burn injuries; 0.0045% gel, 8 hours): 2.5 mm and 1.5 mm
- Height in mm of Swelling of Soft Tissue Surrounding Burn Site (thermal burn injuries; 0.0045% gel, 8 hours): 1 mm
- Subjective Evaluation of Tenderness on Palpations (rated 0 to 5) (thermal burn injuries; 0.0045% gel, 8 hours): 2 and 4
- Zone of Erythema Surrounding Burn Site (mm) (thermal burn injuries; 0.0045% gel, 8 hours): 6 mm and 3 mm
- Height in mm of Blister (thermal burn injuries; 0.0045% gel, 22 hours): 1.5 mm and 1 mm
- Subjective Evaluation of Tenderness on Palpations (rated 0 to 5) (thermal burn injuries; 0.0045% gel, 22 hours): 2 and 4
- % Reduction in Tissue Damage at 22 Hours: Height of Blister (thermal burn injuries; [4]): 50.0%
- % Reduction in Tissue Damage at 22 Hours: Swelling of Surrounding Tissue (thermal burn injuries; [4]): 100.0% and 50.0%
- % Reduction in Tissue Damage at 22 Hours: Zone of Erythema (mm) (thermal burn injuries; [4]): 66.7% and 81.3%
- Height in mm of Blister (thermal burn injuries; 0.009% gel, 3.5 hours): 2 mm
- Height in mm of Swelling of Soft Tissue Surrounding Burn Site (thermal burn injuries; 0.009% gel, 3.5 hours): 1 mm
- Subjective Evaluation of Tenderness on Palpations (rated 0 to 5) (thermal burn injuries; 0.009% gel, 3.5 hours): 2 and 3
- Zone of Erythema Surrounding Burn Site (mm) (thermal burn injuries; 0.009% gel, 3.5 hours): 6 mm and 4 mm
- Height in mm of Blister (thermal burn injuries; 0.009% gel, 8 hours): 1 mm
- Height in mm of Swelling of Soft Tissue Surrounding Burn Site (thermal burn injuries; 0.009% gel, 8 hours): 0 mm
- Subjective Evaluation of Tenderness on Palpations (rated 0 to 5) (thermal burn injuries; 0.009% gel, 8 hours): 2
- Zone of Erythema Surrounding Burn Site (mm) (thermal burn injuries; 0.009% gel, 8 hours): 4 mm and 3 mm
- Height in mm of Swelling of Soft Tissue Surrounding Burn Site (thermal burn injuries; 0.009% gel, 22 hours): 0 mm
- Subjective Evaluation of Tenderness on Palpations (rated 0 to 5) (thermal burn injuries; 0.009% gel, 22 hours): 1
- Zone of Erythema Surrounding Burn Site (mm) (thermal burn injuries; 0.009% gel, 22 hours): 2 mm
- % Reduction in Tissue Damage at 22 Hours: Height of Blister (thermal burn injuries; [5]): 75.0% and 100.0%
- % Reduction in Tissue Damage at 22 Hours: Swelling of Surrounding Tissue (thermal burn injuries; [5]): 100.0%
- % Reduction in Tissue Damage at 22 Hours: Tenderness on Palpation (thermal burn injuries; [5]): 80.0%
- % Reduction in Tissue Damage at 22 Hours: Zone of Erythema (mm) (thermal burn injuries; [5]): 77.8% and 75.0%
- Difference in tissue damage parameters vs placebo (thermal burn injuries; 0.009% vs placebo, p<.O1 for 3 of the 4 parameters, fourth p<0.05): highly significant
- Untoward events or significant complications (thermal burn injuries; in vivo): no untoward events or significant complications
- Exudation, Percent Reduction from Pre-Treatment Value [2, 6]: 50.0% and 75.0% and 100.0%
- Itch/Burn, Percent Reduction from Pre-Treatment Value [2, 6]: 75.0% and 80.0% and 100.0%
- Redness, Percent Reduction from Pre-Treatment Value [2, 6]: 50.0% and 66.67% and 100.0%
- Contact Lens Tolerance, Percent Reduction from Pre-Treatment Value [2, 7]: 100.0%
- Exudation, Percent Reduction from Pre-Treatment Value [2, 7]: 100.0%
- Itch/Burn, Percent Reduction from Pre-Treatment Value [2, 7]: 100.0%
- Redness, Percent Reduction from Pre-Treatment Value [2, 7]: 100.0%
- Conjunctival Injection (redness), Value at 120 Hours [2, 8]: 0
- Contact Lens Tolerance, Value at 120 hours [2, 8]: 0
- Exudation, Value at 120 Hours [2, 8]: 0
- Itching and Burning, Value at 120 hours [2, 8]: 0
- Difference in percent reduction of tissue damage parameters and symptoms vs placebo ophthalmic solution ([2]; 0.0067% ophthalmic solution, except contact lens tolerance at 48 hours): either significant (p<0.05) or highly significant (p<.O1)
- Decrease in size of the papilla ([2]; end of the 5 day treatment period, any of the patients): a significant decrease in size of the papilla was not noted
- Untoward effects ([2]; in vivo): no untoward effects
- Difference in lesion decay rates vs placebo gel ([3]; p<0.05): statistically significant
- Standardized Decay Rate/24 hrs ([3]; per patient): 56.55 and 36.36
